In paper PMC4901301 (Scientific Reports, 2016):
In brackets after ≈: the same amount, converted by molar mass. Where two headings read alike, the source gives them in different places.

Columns and labels:
Type in all cases: cell-based, Mycobacterium tuberculosis
Mtb MT 182 = assay: Resazurin (Alamar Blue) drug susceptibility testing, MT 182
Mtb TC 12561 = assay: Resazurin (Alamar Blue) drug susceptibility testing, TC 12561
Mtb TH 12768 = assay: Resazurin (Alamar Blue) drug susceptibility testing, TH 12768
[1] = test system: Mtb H37Rv thyX Tet-OFF conditional knockdown mutant

`O=C1C(O)=C(Cc2ccc(-c3ccc(Cl)cc3)cc2)C(=O)c2ccccc21` [Compound 007B] was tested, and the MIC (Mtb MT 182; read-out: MIC) was 83.4 µM (≈ 31.3 µg/mL), the MIC (Mtb TC 12561; read-out: MIC) was 83.4 µM (≈ 31.3 µg/mL) and the MIC (Mtb TH 12768; read-out: MIC) was 41.7 µM (≈ 15.6 µg/mL).
For `O=C1C(O)=C(Cc2ccc(OC(F)(F)F)cc2)C(=O)c2ccccc21` [Compound 007C], the MIC (Mtb MT 182; read-out: MIC) was 44.9 µM (≈ 15.6 µg/mL), the MIC (Mtb TC 12561; read-out: MIC) was 44.9 µM (≈ 15.6 µg/mL) and the MIC (Mtb TH 12768; read-out: MIC) was 44.9 µM (≈ 15.6 µg/mL).
`CC(C)Oc1ccc(CC2=C(O)C(=O)c3ccccc3C2=O)cc1` [Compound 007D] showed an MIC (Mtb MT 182; read-out: MIC) of 96.9 µM (≈ 31.2 µg/mL), an MIC (Mtb TC 12561; read-out: MIC) of 96.9 µM (≈ 31.2 µg/mL) and an MIC (Mtb TH 12768; read-out: MIC) of 96.9 µM (≈ 31.2 µg/mL).
In the case of `O=C1C(O)=C(Cc2ccc(C(F)(F)F)cc2)C(=O)c2ccccc21` [Compound 007F], the MIC (Mtb MT 182; read-out: MIC) is reported as 94.1 µM (≈ 31.3 µg/mL), the MIC (Mtb TC 12561; read-out: MIC) is reported as 47.0 µM (≈ 15.6 µg/mL) and the MIC (Mtb TH 12768; read-out: MIC) is reported as 94.1 µM (≈ 31.3 µg/mL).
For `O=C1C(O)=C(Cc2ccc(Oc3ccccc3)cc2)C(=O)c2ccccc21` [Compound 007G], the MIC (Mtb MT 182; read-out: MIC) was 87.8 µM (≈ 31.3 µg/mL), the MIC (Mtb TC 12561; read-out: MIC) was 87.8 µM (≈ 31.3 µg/mL) and the MIC (Mtb TH 12768; read-out: MIC) was 175.5 µM (≈ 62.5 µg/mL).
`O=C1C(O)=C(Cc2ccc(Cl)cc2)C(=O)c2ccccc21` [Compound 010A] was tested, and the MIC (Mtb MT 182; read-out: MIC) was 104.6 µM (≈ 31.2 µg/mL), the MIC (Mtb TC 12561; read-out: MIC) was 52.3 µM (≈ 15.6 µg/mL) and the MIC (Mtb TH 12768; read-out: MIC) was 104.6 µM (≈ 31.2 µg/mL).
Work on `O=C1C(O)=C(Cc2cc(F)cc(F)c2)C(=O)c2ccccc21` [Compound 010B] yielded an MIC (Mtb MT 182; read-out: MIC) of 104.1 µM (≈ 31.3 µg/mL), an MIC (Mtb TC 12561; read-out: MIC) of 104.1 µM (≈ 31.3 µg/mL) and an MIC (Mtb TH 12768; read-out: MIC) of 52.1 µM (≈ 15.6 µg/mL).
For `O=C1C(O)=C(Cc2ccco2)C(=O)c2ccccc21` [Compound 010C], the MIC (Mtb MT 182; read-out: MIC) was 176.5 µM (≈ 44.9 µg/mL), the MIC (Mtb TC 12561; read-out: MIC) was 176.5 µM (≈ 44.9 µg/mL) and the MIC (Mtb TH 12768; read-out: MIC) was 176.5 µM (≈ 44.9 µg/mL).
For `O=C1C(O)=C(Cc2cccs2)C(=O)c2ccccc21` [Compound 010D], the MIC (Mtb MT 182; read-out: MIC) was 462.4 µM (≈ 125 µg/mL), the MIC (Mtb TC 12561; read-out: MIC) was 57.8 µM (≈ 15.6 µg/mL) and the MIC (Mtb TH 12768; read-out: MIC) was 231.2 µM (≈ 62.5 µg/mL).
`O=C1C(O)=C(Cc2ccc(F)c(C(F)(F)F)c2)C(=O)c2ccccc21` [Compound 010E] showed an MIC (Mtb MT 182; read-out: MIC) of 22.3 µM (≈ 7.81 µg/mL), an MIC (Mtb TC 12561; read-out: MIC) of 22.3 µM (≈ 7.81 µg/mL) and an MIC (Mtb TH 12768; read-out: MIC) of 22.3 µM (≈ 7.81 µg/mL).
In the case of `O=C1C(O)=C(Cc2ccc(F)c(Cl)c2)C(=O)c2ccccc21` [Compound 010F], the MIC (Mtb MT 182; read-out: MIC) is reported as 98.7 µM (≈ 31.3 µg/mL), the MIC (Mtb TC 12561; read-out: MIC) is reported as 49.3 µM (≈ 15.6 µg/mL) and the MIC (Mtb TH 12768; read-out: MIC) is reported as 197.3 µM (≈ 62.5 µg/mL).
In the case of `COc1cc(CC2=C(O)C(=O)c3ccccc3C2=O)ccc1O` [Compound 010H], the MIC (Mtb MT 182; read-out: MIC) is reported as 100.7 µM (≈ 31.2 µg/mL), the MIC (Mtb TC 12561; read-out: MIC) is reported as 201.4 µM (≈ 62.5 µg/mL) and the MIC (Mtb TH 12768; read-out: MIC) is reported as 201.4 µM (≈ 62.5 µg/mL).
For `CCCCC1=C(O)C(=O)c2ccccc2C1=O` [Compound 010I], the MIC (Mtb MT 182; read-out: MIC) was 135.7 µM (≈ 31.2 µg/mL), the MIC (Mtb TC 12561; read-out: MIC) was 271.4 µM (≈ 62.5 µg/mL) and the MIC (Mtb TH 12768; read-out: MIC) was 135.7 µM (≈ 31.2 µg/mL).
Compound `COc1ccc(CC2=C(O)C(=O)c3ccccc3C2=O)cc1OC` [Compound 010K] has an MIC (Mtb MT 182; read-out: MIC) of 385.4 µM (≈ 125 µg/mL), an MIC (Mtb TC 12561; read-out: MIC) of 192.7 µM (≈ 62.5 µg/mL) and an MIC (Mtb TH 12768; read-out: MIC) of 192.7 µM (≈ 62.5 µg/mL).
`CCOC(=O)C1=C(c2ccc(C)cc2)C(=O)c2ccccc2C1=O` [Compound B6, ethyl 3-(4-methylphenyl)-1,4-dioxonaphtalene-2-carboxylate] was tested, and the “MIC90 shift (increase in potency) upon ThyX depletion” value [1] was “no shift”.
For `CS(=O)(=O)N1CCN(C2=C(Cl)C(=O)c3ccccc3C2=O)CC1` [Compound E1, 2-chloro-3-(4-methanesulfonylpiperazin-1-yl)-1,4-dihydronaphthalene-1,4-dione], the “MIC90 shift (increase in potency) upon ThyX depletion” value [1] was no less than 4 fold.
`NNC(=O)c1ccncc1` [INH, isoniazid, reference compound] showed an MIC (Mtb MT 182; Mycobacterium tuberculosis, MT182, read-out: MIC) of less than 0.91 µM, an MIC (Mtb TC 12561; Mycobacterium tuberculosis, TC12561, read-out: MIC) of 14.6 µM (≈ 2 µg/mL) and an MIC (Mtb TH 12768; Mycobacterium tuberculosis, TH12768, read-out: MIC) of 3.64 µM (≈ 0.499 µg/mL).
In the case of `COC1=C(OC)C(=O)C(CCCCCCCCCCO)=C(C)C1=O` [Idebenone, idebenone, reference compound], the Growth inhibition [1] is reported as ~ 90%.
With `CO[C@H]1/C=C/O[C@@]2(C)Oc3c(C)c(O)c4c(O)c(c(/C=N/N5CCN(C)CC5)c(O)c4c3C2=O)NC(=O)/C(C)=C\C=C\[C@H](C)[C@H](O)[C@@H](C)[C@@H](O)[C@@H](C)[C@H](OC(C)=O)[C@@H]1C` [RMP, rifampicin, reference compound] the MIC (Mtb MT 182; Mycobacterium tuberculosis, MT182) was 1.21 µM (≈ 0.996 µg/mL), the MIC (Mtb TC 12561; Mycobacterium tuberculosis, TC12561) was 4.86 µM (≈ 4 µg/mL) and the MIC (Mtb TH 12768; Mycobacterium tuberculosis, TH12768) was less than 0.3 µM.
